According to the NIST ThermoML archive (doi:10.1016/j.fluid.2012.01.023):
Numbers after ± are expanded uncertainties.

How the values were obtained:
[1] = Liquid, Vibrating tube method
[2] = xn = mol fraction of the nth substance listed; settings: Liquid; for viscosity: Electromagnetically Driven Piston; for mass density: Vibrating tube method

CCCCCCCCCCCCCC [tetradecane]
[1]
Settings | mass density [kg/m3]
294.4 K, 5030 kPa | 764 ± 2
294.6 K, 8000 kPa | 766 ± 2
294.6 K, 9490 kPa | 767 ± 2
294.8 K, 2050 kPa | 760 ± 2
294.8 K, 3540 kPa | 762 ± 2
294.8 K, 6500 kPa | 765 ± 2
324 K, 3540 kPa | 743 ± 2
324 K, 5050 kPa | 744 ± 2
324 K, 6560 kPa | 746 ± 2
324.1 K, 2070 kPa | 742 ± 2
324.1 K, 8070 kPa | 747 ± 2
324.1 K, 9540 kPa | 748 ± 2
373.3 K, 5060 kPa | 711 ± 2
373.3 K, 6560 kPa | 712 ± 2
373.5 K, 2100 kPa | 708 ± 2
373.5 K, 3560 kPa | 709 ± 2
373.5 K, 8030 kPa | 713 ± 2
373.5 K, 9500 kPa | 715 ± 2
447.5 K, 4920 kPa | 660 ± 2
447.5 K, 6450 kPa | 662 ± 2
447.6 K, 1990 kPa | 655 ± 2
447.6 K, 3590 kPa | 658 ± 2
447.6 K, 7960 kPa | 665 ± 2
447.6 K, 9470 kPa | 667 ± 2

CCCCCCCCCCCCCC [tetradecane] + C
[2]
Settings | mass density [kg/m3] | viscosity [mPa·s]
294.4 K, x2 = 0.232 | 740 ± 2 | 1.48 ± 0.15
294.6 K, x2 = 0.331 | 728 ± 2 | 1.16 ± 0.12
294.6 K, x2 = 0.364 | 723 ± 2 | 1.05 ± 0.11
294.8 K, x2 = 0.112 | 752 ± 2 | 1.74 ± 0.18
294.8 K, x2 = 0.176 | 746 ± 2 | 1.64 ± 0.17
294.8 K, x2 = 0.282 | 734 ± 2 | 1.33 ± 0.14
324 K, x2 = 0.159 | 726 ± 2 | 0.97 ± 0.1
324 K, x2 = 0.213 | 722 ± 2 | 0.91 ± 0.09
324 K, x2 = 0.264 | 716 ± 2 | 0.82 ± 0.09
324.1 K, x2 = 0.1 | 732 ± 2 | 1.07 ± 0.11
324.1 K, x2 = 0.306 | 711 ± 2 | 0.75 ± 0.08
324.1 K, x2 = 0.342 | 706 ± 2 | 0.7 ± 0.07
373.3 K, x2 = 0.193 | 689 ± 2 | 0.51 ± 0.05
373.3 K, x2 = 0.239 | 683 ± 2 | 0.49 ± 0.05
373.5 K, x2 = 0.09 | 699 ± 2 | 0.57 ± 0.06
373.5 K, x2 = 0.143 | 694 ± 2 | 0.54 ± 0.06
373.5 K, x2 = 0.279 | 678 ± 2 | 0.46 ± 0.05
373.5 K, x2 = 0.317 | 674 ± 2 | 0.44 ± 0.05
447.5 K, x2 = 0.176 | 636 ± 2 | 0.28 ± 0.03
447.5 K, x2 = 0.223 | 631 ± 2 | 0.27 ± 0.03
447.6 K, x2 = 0.078 | 646 ± 2 | 0.31 ± 0.03
447.6 K, x2 = 0.137 | 640 ± 2 | 0.29 ± 0.03
447.6 K, x2 = 0.266 | 625 ± 2 | 0.25 ± 0.03
447.6 K, x2 = 0.303 | 620 ± 2 | 0.24 ± 0.03
